Patent US20120237614A1, “PEPTIDE ABLE TO DISRUPT THE PROTEIN COMPLEX BETWEEN THE HIS273 MUTADED P53 PROTEIN AND THE ONCOSUPPRESSIVE P73 PROTEIN IN TUMOR CELLS AND THERAPEUTIC USES THEREOF” (priority 2009, published 2012)
“Also recorded” adds a separate entry of the source.

Legend:
[1] = tested on: HT29 cells; test: In vivo tumorigenicity test (xenograft of peptide transfected HT29 cells); details: naked mice, s.c. 5×10^5 peptide transfected cells/mouse, 5 weeks
Method: In order to assay SIMP1 in vivo antitumor activity nu/nu […] mice were administered subcutaneously with SIMP1, SIMP1KO and SIMP5M transfected HT29 cells (5.0×10^5 cells/mouse). Tumour growth has been monitored over 5 weeks.
Xenograft assays have been carried out by administration to naked mice subcutaneous injections containing 5×10^5 cells/mouse of SIMP1, SIMP1KO and SIMP5M peptide transfected colon and rectum tumour human cell line (nu/nu CD1 Charles River mice). The tumour growth together with animal body weight is monitored for 5 weeks in order to estimate the chronic toxicity
The experiments have been carried out by administration to naked mouse (nu/nu CD1 Charles River mice) subcutaneous injections containing 5×10^5 cells/mouse. The tumour growth has been monitored together with animal body weight for 5 weeks in order to estimate possible not occurred chronic toxic effects (FIG. 5).

[2] = tested on: MDA-MB-468 cells; test: Apoptotic tests (PARP and BAX expression, Western blot) after Adriamycin; type: cell-based, human; details: MDA-MB-468, 3 μM Adriamycin
Method: (§1) (A) MDA-MB-468 (5×10^5) cells have been transfected using a lipofectamine containing mixture, βgal expression vector, which normalizes transfection efficiency, and SIMPI peptide (20 μM). Total cellular lysates (1 mg), have been immunoprecipitated with antibodies directed against p73 and immunoglobulins (IgG). Immunoprecipitates and an aliquot (50 μg) of total lysate after 12% acrylamide gel electrophoretic run have been transferred on nitrocellulose membrane and labelled with antibodies shown in the figure. (B) MDA-MB-468 cells, have been transfected using SIMP1 and SIMP5,6. peptides. Successively, cells have been washed and stimulated with 3 μM Adriamycin. Total obtained lysates (30 μg) have been assayed for the expression of PARP and BAX apoptotic proteins. Lysate has been normalized by assaying γ-tubulin expression. (C-D). Transactivation tests have been carried out by transient transfection of H1299 cells using a mixture containing lipofectamine, SIMP1, SIMP5,6 indicated plasmids (20 μM each) together with pLUC-BAX reporter vector. To each reaction mixture an equal amount of […] expression vector was added, in order to normalize the transfection efficiency.
(§2) 50 μg of solubilised proteins have been separated by electrophoresis on 10 or 15% SDS-polyacrylamide gel. Western blot analysis has been carried out using anti-p53 primary antibodies (DO1 Calbiochem), rabbit anti-PARP, rabbit polyclonal anti-Bax, anti-p21 and anti-tubulin monoclonal antibodies (Calbiochem). Goat anti-mouse and goat anti-rabbit horse peroxidase conjugated secondary antibodies (Amersham) have been used for the expression analyses. Immunolabelled lanes have been detected using chemiluminescence analysis (Pierce).
To this end cell viability and apoptotic tests (FIG. 1B, FIG. 4 B-C) on MDA-MB468 breast carcinoma have been carried out.

[3] = target: T1, m-p53His-273/p73 complex (Homo sapiens, UniProt P04637, R273H); test: Coprecipitation (immunoprecipitation) test of the m-p53/p73 complex in MDA-MB-468 cells; type: cell-based; details: His-273 mutation, peptide 20 μM, anti-p73 immunoprecipitation
T1 construct: Total cellular lysates (1 mg), have been immunoprecipitated with antibodies directed against p73; endogenous in cells; host or cells: MDA-MB-468
Method: as §1
The cell extracts have been processed in a lysis buffer containing 50 mm Tris HCl pH 8, 100 mM NaCl, 10% glycerol, 1% Triton X-100, 1 mM EDTA, 100 mM NaF, MgCl2, 1 mM PMSF, protease and phosphatase inhibitors. Then extracts have been sonicated and centrifuged at 14.000 rpm for 10 min for the debris removal.
as §2, with “Goat anti-mouse and goat anti-rabbit horse peroxidase conjugated secondary antibodies (Amersham) have been used for the expression analyses.” left out, “(Pierce). […]” for “(Pierce).”
In order to evaluate the activity of SIMPI peptide and SIMP1KO and SIMP1M derivatives the ability in disrupting the oncogenic m-p53His-273/p73 complex has been analysed.

[4] = tested on: m-p53 His273 inhibition on p73 transcription activity; test: Transactivation test with pLUC-BAX reporter in transiently transfected H1299 cells; type: cell-based, human; details: peptides 20 μM each
Method: as §1, with “efficiency. […]” for “efficiency.”
To this end, we have analyzed the ability in blocking the His273 p53 induced inhibition on transcription activity. […]

[5] = tested on: MDA-MB-468 cells (His-273 p53 mutation); test: Transactivation test (pLUC-BAX, pLUC-p21) in Adriamycin treated MDA-MB-468 cells; type: cell-based, human; details: MDA-MB-468, 3 μM Adriamycin 24 hours post-transfection, luciferase reporter
Method: MDA-MB-468 cells have been transfected using a mixture containing lipofectamine, pLUC-BAX plasmid, β-galactosidase expression vector, SIMP1 and SIMP control peptides. The cells, 24 hours post-transfection, have been treated with 3 μM Adriamycin.
MDA-MB-468 cells have been transfected using a mixture containing lipofectamine, pLUC-BAX plasmid, pLUC-p21, β-galactosidase expression vector, SIMP1 peptides and SIMP1M and SIMP1KO derived mutant thereof. The cells, 24 hours post-transfection, have been treated with 3 μM Adriamicyn and then processed.
SKBR3, HT-29, MDA-MB-468 cell lines have been transfected with Lipofectamine 2000 according to the supplier instructions (InVitrogen).
Cells (1.5×10^5) have been transiently transfected using SIMP peptides, expression plasmids and reporter constructs as internal controls for transfection efficiency. After the transfection, SKBR3, HT-29 and MDA-MB-468 have been incubated with 3 μM ADR over 24 hours. Cells have been washed with cold PBS and re-suspended in lysis buffer (Promega) and incubated for 10 min at room temp. Insoluble material has been centrifuged and luciferase activity has been determined using a commercial kit with a luminometer (Turner).

FQQSSTAKSATW (p73 SIMP (aa 131-142)) [SIMP1]
tumour growth (tumour size) in vivo [1]: tumour growth is decreased; also recorded: meaningful reduction of the growth (tumour size)
apoptotic response [2]: increase the apoptotic response to chemotherapeutic agents
apoptotic response ([2]; listed as SIMPI): increases the apoptotic response
disruption of m-p53 His-273/p73 protein complex (p73 bound m-p53 amount) [3]: suitable to disrupt m-p53/p73 complexes in tumour cells containing his-273 mutation; also recorded: disrupt selectively m-p53/p73 complex
disruption of m-p53 His-273/p73 protein complex (p73 bound m-p53 amount) ([3]; listed as SIMPI): disrupts mutated p53/p73 protein complex; also recorded: largely reduced
restoration of p73 transcription activity inhibited by m-p53 His273 [4]: modify mutated p53/p73 protein complex restoring p73 oncosuppressive functions; also recorded: blocked the m-p53 His273 inhibition on p73 transcription activity
Adriamycin chemosensitivity / p73 transcription response [5]: increases the Adriamycin sensitivity; also recorded: increase Adriamycin chemosensitivty; also recorded: increased p73 transcription response as an adriamycin response
